One test deals with MDA-MB-468 cells. Briefly: MDA-MB-468 cell proliferation inhibition (MTT). The format is cell-based. Conditions: for Inhibition rate (%): MDA-MB-468, compound concentration 100 nM; for IC50: MDA-MB-468 proliferation. As for the experimental part: MDA-MB-468 cells are one of the triple-negative breast cancer (TNBC: negative for the expression of estrogen receptor, progesterone receptor and HER2) cells known as a malignant tumor that is difficult to diagnose at an early stage and has a high metastatic capacity, and these cells are used to test inhibition of proliferation and survival of breast cancer cells.
MDA-MB-468 cells cultured in a 96-well cell culture plate were treated with the compound of the present invention and cultured for 72 hours. Thereafter, the antiproliferative effect of the compound was assayed by the MTT method using a tetrazolium salt.

Another test has as its system MV-4-11 cells. Kind of test: MV-4-11 cell proliferation inhibition (CCK-8). To be noted: 72 hours; for Inhibition rate (%): MV-4-11, compound concentration 100 nM. Format: cell-based. As for the experimental part:
MV-4-11 cells are one of the acute myeloid leukemia cells with a Fms-like tyrosine kinase (FLT3) gene mutation, and these cells are used to test inhibition of proliferation and survival of leukemia cells.
MV-4-11 cells cultured in a 96-well cell culture plate were treated with the compound of the present invention and cultured for 72 hours. Thereafter, the antiproliferative effect of the compound was assayed by the CCK-8 method using a tetrazolium salt.

Test [1] deals with T1, Recombinant purified human CDK7 (Homo sapiens, UniProt P50613).
T1 construct: purchased ThermoFisher PV3868
Kind of test: CDK7 activity inhibition, ADP-Glo kinase assay. Conditions: ATP 90 μM, MBP substrate, 2 hours 30° C. The format is biochemical. Here is the method: Recombinant purified human CDK7 (ThermoFisher, PV3868) and ADP Glo Kinase Assay Kit (Promega, V9102) were used. CDK7 was diluted with 1× kinase reaction buffer (40 mM Tris-Cl, pH 7.5, 20 mM MgCl2, 0.1 mg/ml BSA and 50 μM DTT) and added to a 96 well plate (CDK7 final concentration per reaction: 50 ng). It was finally treated with the compound of the present invention to a 1% DMSO aqueous solution, and a substrate cocktail containing ATP (final concentration of 90 μM) and 0.2 μg/μl MBP (myelin basic protein) in a total of 25 μl reaction mass was added to a 96 well plate, thereby initiating the enzymatic reaction. After 2 hours of incubation (30° C.), an equal volume (25 μl per reaction) of ADP Glo was added and incubated at room temperature for 60 minutes (30° C.). Thereafter, kinase detection reagent (50 μl per reaction) was added and incubated at room temperature for 30 minutes (30° C.). The kinase activity was measured by the chemiluminescence method according to the ADP Glo Kinase Assay Kit instruction manual, and the CDK7 inhibitory activity of the compounds of the present invention was calculated.

For another test, the system named is HepG2 cells. Kind of test: HepG2 cell proliferation inhibition (CCK-8). The format is cell-based. Conditions: Homo sapiens, HepG2, 72 h. Here is the method:
HepG2 cells are human hepatocellular carcinoma cells. In order to evaluate the efficacy of inhibiting the proliferation in HepG2 cells, HepG2 cells were treated with the compounds of the present invention, and the proliferation level was measured as follows.
The cells were cultured with a culture medium of MEM (Welgene)+10% FBS (Gibco)+1% penicillin/streptomycin (Gibco) at 37° C. in a humidified condition in the presence of 5% CO2. HepG2 cells cultured in a 96-well cell culture plate were treated with the compound of the present invention and cultured for 72 hours.

The next test concerns Hep3B. Kind of test: Cancer cell proliferation GI50 (CCK-8). Format: cell-based. Conditions: liver cancer, 72 hours. Here is the method:
(§1) The proliferation effect of SY-1365, which is known to have a proliferation inhibitory effect on various carcinoma cells, and the compound of the present invention on various cancer cells was measured and compared as GI50 (half maximal growth inhibitory concentration, the concentration at which cell proliferation is reduced by half).
(§2) Various carcinoma cells were cultured at 37° C. in a humidified condition in the presence of 5% CO2. Each cell cultured in a 96-well cell culture plate was treated with the compound of the present invention and cultured for 72 hours.
(§3) In this example, in order to confirm the proliferation inhibitory effect on various cancer cells, Compound 121 was tested as follows.
(§4) The cells were cultured with a culture medium shown in Table 9 below at 37° C. in a humidified condition in the presence of 5% CO2. Each cell cultured in a 96-well cell culture plate was treated with the compound of the present invention and cultured for 72 hours.

In a further test the test system is Huh7. Kind of test: Cancer cell proliferation GI50 (CCK-8). Format: cell-based. To be noted: Huh7 (Huh-7), liver cancer, 72 hours. Here is the method:
as §1, §2, §3, §4

A further test has as its system MDA-MB-231. Kind of test: Cancer cell proliferation GI50 (CCK-8). Format: cell-based. To be noted: MDA-MB-231, breast cancer, 72 hours. Here is the method:
as §1, §2, §3, §4

Another test concerns MDA-MB-468. Briefly: Cancer cell proliferation GI50 (CCK-8). The format is cell-based. To be noted: MDA-MB-468, breast cancer, 72 hours. Here is the method: as §1, §2, §3, §4
The subject of a further test is HepG2. Kind of test: Cancer cell proliferation GI50 (CCK-8). Conditions: HepG2, liver cancer, 72 hours. The format is cell-based, human. Here is the method: as §1, §2, §3, §4

These results are taken from patent publication US20230095520A1, “PHARMACEUTICAL COMPOSITION FOR PREVENTING OR TREATING CANCER COMPRISING AZOLE DERIVATIVES OR PHARMACEUTICALLY ACCEPTABLE SALT THEREOF” (Yungjin Pharm. Co., Ltd., priority 2020, published 2023).

The structures appear in SMILES notation.

T1 sequence (P50613 whole entry): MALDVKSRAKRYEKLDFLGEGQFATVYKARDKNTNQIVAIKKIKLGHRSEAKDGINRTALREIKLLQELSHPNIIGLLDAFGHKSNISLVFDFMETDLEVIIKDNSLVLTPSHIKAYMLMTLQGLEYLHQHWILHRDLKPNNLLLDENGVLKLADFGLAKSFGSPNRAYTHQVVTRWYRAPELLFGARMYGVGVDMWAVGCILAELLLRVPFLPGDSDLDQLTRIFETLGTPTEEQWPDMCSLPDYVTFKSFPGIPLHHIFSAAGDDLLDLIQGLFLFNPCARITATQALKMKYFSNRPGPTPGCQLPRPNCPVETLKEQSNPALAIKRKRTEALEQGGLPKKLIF
T1 sequence (P51946 whole entry partner): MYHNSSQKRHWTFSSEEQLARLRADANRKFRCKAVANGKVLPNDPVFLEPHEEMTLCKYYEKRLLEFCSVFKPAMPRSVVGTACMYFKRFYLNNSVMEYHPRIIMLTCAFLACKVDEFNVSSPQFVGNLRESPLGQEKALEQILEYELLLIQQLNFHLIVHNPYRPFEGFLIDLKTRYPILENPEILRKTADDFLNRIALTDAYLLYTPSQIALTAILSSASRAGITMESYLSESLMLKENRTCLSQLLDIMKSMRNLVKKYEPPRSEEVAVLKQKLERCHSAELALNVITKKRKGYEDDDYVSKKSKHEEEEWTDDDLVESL
T1 sequence (P51948 whole entry partner): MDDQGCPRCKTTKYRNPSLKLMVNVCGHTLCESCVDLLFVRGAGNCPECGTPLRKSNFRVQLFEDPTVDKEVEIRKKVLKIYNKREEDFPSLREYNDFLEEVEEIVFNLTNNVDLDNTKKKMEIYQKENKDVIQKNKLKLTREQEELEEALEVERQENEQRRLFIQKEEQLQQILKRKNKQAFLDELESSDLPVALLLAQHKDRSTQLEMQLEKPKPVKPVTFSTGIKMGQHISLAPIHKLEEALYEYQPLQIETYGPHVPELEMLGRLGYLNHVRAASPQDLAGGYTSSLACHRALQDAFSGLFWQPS

`C=CC(=O)Nc1cncc(-c2cccc([C@H](C)C(=O)Nc3ncc(C4CC4)s3)c2)n1` [Compound 16]: the entries for the “Inhibition rate (%)” value in the test on MDA-MB-468 cells (72 hours) and in the test with MV-4-11 cells were 53% and 90%, respectively.
Regarding `C=CC(=O)Nc1cnc(-c2cccc([C@H](C)C(=O)Nc3ncc(C4CC4)s3)c2)cn1` [Compound 22], the “Inhibition rate (%)” value with MDA-MB-468 cells (72 hours) is 72%; with MV-4-11 cells it was 100%.
As to `C=CC(=O)Nc1ncc(-c2cccc([C@H](C)C(=O)Nc3ncc(C4CC4)s3)c2)cn1` [Compound 27], the “Inhibition rate (%)” value in the test with MDA-MB-468 cells (72 hours) was determined as 74%; in the test with MV-4-11 cells, 100%.
For `C=CC(=O)Nc1ccc(-c2cccc([C@H](C)C(=O)Nc3ncc(C4CC4)s3)c2)nn1` [Compound 28], the “Inhibition rate (%)” value in the test on MDA-MB-468 cells (72 hours) came out at 74%; with MV-4-11 cells it was 100%.
For `C=CC(=O)Nc1ncc(-c2cccc([C@H](C)C(=O)Nc3ncc(C4CC4)s3)c2)cc1F` [Compound 29], in that order: 75% and 100%.
Turning to `C=CC(=O)Nc1cnc(-c2cncc(C(C)C(=O)Nc3ncc(C(F)(F)F)s3)c2)cn1` (stereo not shown) [Compound 45, N-(5-(5-(1-oxo-1-((5-(trifluoromethyl)thiazol-2-yl)amino)propan-2-yl)pyridin-3-yl)pyrazin-2-yl)acrylamide], the half-maximal inhibitory concentration (IC50) is 22.7 nM in test [1]; at most 14 nM with MDA-MB-468 cells (Homo sapiens, MDA-MB-468, 72 h); 9.5 nM with MDA-MB-468 cells (72 hours); 8 nM with MV-4-11 cells (Homo sapiens, MV4-11, MV-4-11 proliferation); 8.3 nM in the test on HepG2 cells. The inhibition at 0.1 µM in the test on MV-4-11 cells (Homo sapiens, MV4-11, MV-4-11, compound concentration 100 nM, read-out: Inhibition rate (%)) worked out at 100%.
Take `C[C@H](C(=O)Nc1ncc(C(F)(F)F)s1)c1cccc(-c2cnc(NC(=O)/C=C/CN3CC[C@@H](F)C3)cn2)c1` [Compound 115, (E)-4-((R)-3-fluoropyrrolidin-1-yl)-N-(5-(3-((S)-1-oxo-1-((5-(trifluoromethyl)thiazol-2-yl)amino)propan-2-yl)phenyl)pyrazin-2-yl)but-2-enamide]: the figures for the IC50 (in [1]; in the test with HepG2 cells) were 17 nM and 12.6 nM, respectively.
`C[C@H](C(=O)Nc1ncc(C(F)(F)F)s1)c1cccc(-c2cnc(NC(=O)/C=C/CN3CCC(O)C3)cn2)c1` (stereo partly drawn) [Compound 119, (E)-4-(3-hydroxypyrrolidin-1-yl)-N-(5-(3-((S)-1-oxo-1-((5-(trifluoromethyl)thiazolyl)amino)propan-2-yl)phenyl)pyrazin-2-yl)but-2-enamide]: the results for the IC50 (in test [1]; in the test with MDA-MB-468 cells (72 hours)) were 9 nM and 44 nM, respectively.
Regarding `CCc1cnc(NC(=O)[C@@H](C)c2cccc(-c3cnc(NC(=O)/C=C/CN(C)C)c(F)c3)c2)s1` [Compound 130, (S,E)-4-(dimethylamino)-N-(5-(3-(1-((5-ethylthiazol-2-yl)amino)-1-oxopropan-2-yl)phenyl)-3-fluoropyridin-2-yl)but-2-enamide], the concentration for half-maximal inhibition (IC50) is 4 nM in test [1]; at most 14 nM in the test on MDA-MB-468 cells (Homo sapiens, MDA-MB-468, 72 h); 7 nM with MDA-MB-468 cells (72 hours).
Regarding `CN(C)C/C=C/C(=O)Nc1ccc(C(=O)N[C@@]2(C)CCC[C@@H](Nc3ncc(Cl)c(-c4c[nH]c5ccccc45)n3)C2)nc1` [SY-1365, reference compound], the concentration for 50% growth inhibition (GI50) with Hep3B was found to be 36 nM; with Huh7 it was 20 nM; with MDA-MB-231, 70 nM; with MDA-MB-468, 18 nM; in the test on HepG2, 19 nM.
